This note sets out measurements from publication PMC5372168, “Serine protease SP105 activates prophenoloxidase in Asian corn borer melanization, and is regulated by serpin-3” (Scientific Reports, 2017).

This experiment concerns the target T1, Asian corn borer prophenoloxidase-2 (OfPPO2; PO2) (Ostrinia furnacalis, UniProt Q2I355).
T1 construct: coding region of mature PPO2 in pET28a, E. coli BL21(DE3), purified
T1 sequence (Q2I355 1-692): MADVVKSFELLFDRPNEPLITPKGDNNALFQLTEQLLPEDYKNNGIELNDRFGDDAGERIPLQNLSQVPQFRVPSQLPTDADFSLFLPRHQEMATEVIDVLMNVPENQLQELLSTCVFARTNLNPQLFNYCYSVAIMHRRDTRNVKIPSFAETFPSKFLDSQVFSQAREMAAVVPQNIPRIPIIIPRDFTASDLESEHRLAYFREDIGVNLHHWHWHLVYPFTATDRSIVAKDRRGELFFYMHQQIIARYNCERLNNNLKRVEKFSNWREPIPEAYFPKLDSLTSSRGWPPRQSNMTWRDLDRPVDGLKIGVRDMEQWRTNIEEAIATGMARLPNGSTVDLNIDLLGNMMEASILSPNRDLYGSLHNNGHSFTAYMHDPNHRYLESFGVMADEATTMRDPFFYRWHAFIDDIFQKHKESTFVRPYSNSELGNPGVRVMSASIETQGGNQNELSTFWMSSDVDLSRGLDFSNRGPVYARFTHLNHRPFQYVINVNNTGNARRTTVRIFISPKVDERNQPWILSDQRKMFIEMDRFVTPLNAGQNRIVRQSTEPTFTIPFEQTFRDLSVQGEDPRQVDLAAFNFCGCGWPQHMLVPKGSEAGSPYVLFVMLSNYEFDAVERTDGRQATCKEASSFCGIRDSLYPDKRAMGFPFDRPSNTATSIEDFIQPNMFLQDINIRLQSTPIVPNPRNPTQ
Kind of experiment: phenoloxidase assay, A490. The experiment is classed as biochemical. The conditions noted are these: PPO2 activated by Factor Xa-activated SP105Xa, 37 °C 30 min.

For the compound `NCCc1ccc(O)c(O)c1` [dopamine], the “phenoloxidase assay, A490” value is “PO activity in the reaction mixtures was measured using dopamine as substrate”.
